Results reported in publication PMC7311426, “An amphipathic peptide with antibiotic activity against multidrug-resistant Gram-negative bacteria” (Nature Communications, 2020).
Values after ≈ are worked out from the molar mass of the structure shown. Residues, ends and D or L forms follow the SMILES beside them.

Legend:
P. aeruginosa = experiment: microbe, parasite or virus in culture
Method: (§1) Antimicrobial activity of arenicin-3 and its analogs was tested against a panel of bacterial and yeast strains by in vitro broth microdilution (BMD) assay with minimum inhibitory concentration (MIC) determination. Strains were purchased from American Type Culture Collection (ATCC) or obtained from clinical collaborators (full strain profiles provided in Supplementary Data 3). All peptides were prepared in Ringer’s acetate solution, and subsequently diluted fresh in water for each independent assay.
(§2) Assays were performed in Mueller Hinton broth (MHB; BD, Cat. No. 211443) for bacteria, and yeast extract-peptone dextrose (YPD; Sigma-Aldrich, Y1500) for yeast. The concentrations of the peptides and comparator antibiotics/antifungals in the assay wells ranged from either 128 or 64 μg mL^−1, to 0.06 or 0.03 μg mL^−1 as a 12-point dose response plated as a 2-fold dilution series across the wells of the plate in duplicate for each independent biological replicate, using a final cell density of 5 × 10^5 CFU mL^−1 and 2.5 × 10^3 CFU mL^−1 for bacteria and yeast respectively. Final assay volumes were 100 μL per well with MICs determined visually following 18-20 h incubation at 37 °C for bacteria, 24 h incubation at 35 °C for Candida albicans, and 24 h incubation at 35 °C with resazurin addition (0.006%; Sigma-Aldrich, Cat # R7017) for a further 3 h for Cryptococcus neoformans, without shaking. Additional bacterial and yeast susceptibility assays were performed in Cation-Adjusted Mueller Hinton Broth (CAMHB; BD, Cat No. 212322) and Roswell Park Memorial Institute (RPMI) 1640 culture medium (Life Technologies Australia, Cat No. 21870092), respectively, as recommended by CLSI guidelines (M07 11th ed[36] and M27 4th ed[37]). […] Agarose MICs were determined in MHB with 1% agarose (Bioline molecular grade; Cat no: BIO-41025; high purity, high gel strength). All experiments were performed a minimum of six replicates (n ≥ 6).

K. pneumoniae = experiment: microbe, parasite or virus in culture
Method: as §1, §2

A. baumannii = experiment: microbe, parasite or virus in culture
Method: as §1, §2

C. albicans = experiment: microbe, parasite or virus in culture; details: 24 h
Method: as §1, §2

E. coli = experiment: microbe, parasite or virus in culture
Method: as §1, §2

S. aureus = experiment: microbe, parasite or virus in culture
Method: as §1, §2

[1] = test system: human erythrocytes (HRBC); assay type: cell-based; details: for Heamolysis HC10: red cells of human, 3 h
in vitro = details: human
Method: (§3) HEK-293 human embryonic kidney cells (ATCC CRL-1573), HepG2 liver hepatocellular carcinoma cells (ATCC HB-8065), and HK-2 human kidney proximal tubule cells (ATCC CRL-2190) cell lines were purchased from ATCC. Cytotoxicity of arenicin-3 variants was determined using the Alamar Blue (resazurin; Sigma-Aldrich, Cat # R7017), with 1% FBS for HK-2 and 10% FBS for HEK-293, and HepG2[40]. Cells were seeded as 2000 cells per well in black wall clear bottom 384-well plates (Corning®, Costar®, Cat # 3712). The cells were incubated for 24 h at 37 °C, 5% CO2. Then peptides were added into each cell containing well. After 24 h incubation, 5 μM resazurin were added per well and incubated at 37 °C for 2 h. Then the fluorescence intensity (FI) was read using a Polarstar® Omega plate reader with excitation/emission 560/590 and CC50 values were determined using Prism 8 following curve fitting and applying the following equation: Percentageviability = (FITEST-FINegative/FIUNTREATED-FINegative)×100.
(§4) Hemolytic activity was measured against isolated human erythrocytes from anonymously donated fresh human blood. Isolated erythrocytes were adjusted to 1 × 10^9 blood cells mL^−1 in phosphate-buffered saline (PBS, pH 7.4), added to the wells of NUNC polypropylene round-bottom 96-well plates (Sigma-Aldrich, Cat # P6866) then up to 300 μg mL^−1 of compound was added per well and incubated for 3 h at 37 °C. Following incubation, samples were centrifuged at 3000 rpm for 20 min, and the supernatants, 100 μL, were carefully collected for measurement. The degree of hemolysis in the samples was determined by measurement of the absorption of the supernatants at 540 nm using the Polarstar-Omega plate reader. 1% Triton-X100 was used as positive control for inducing 100% hemolysis. HC10 and HC50 values were determined using Prism 8 following curve fitting. The use of human blood (sourced from the Australian Red Cross Blood Service) for hemolysis assays was approved by the University of Queensland Institutional Human Research Ethics Committee, Approval Number 2014000031. All in vitro toxicity assays were performed for two independent biological replicates as an 8-point dose response of 3-fold dilution series in triplicate with the highest test concentration of 300 μg mL^−1.

[2] = test system: HEK-293 human embryonic kidney cells; experiment: in vitro
Method: as §3, §4

[3] = test system: HK-2 human kidney proximal tubule cells; experiment: in vitro
Method: as §3, §4

[4] = test system: HepG2 liver hepatocellular carcinoma cells; experiment: in vitro
Method: as §3, §4

E. coli ATCC 25922 = experiment: microbe, parasite or virus in culture; assay type: cell-based, Escherichia coli; details: ATCC 25922
Method: Assays were performed in Mueller Hinton broth (MHB; BD, Cat. No. 211443) for bacteria, and yeast extract-peptone dextrose (YPD; Sigma-Aldrich, Y1500) for yeast. The concentrations of the peptides and comparator antibiotics/antifungals in the assay wells ranged from either 128 or 64 μg mL^−1, to 0.06 or 0.03 μg mL^−1 as a 12-point dose response plated as a 2-fold dilution series across the wells of the plate in duplicate for each independent biological replicate, using a final cell density of 5 × 10^5 CFU mL^−1 and 2.5 × 10^3 CFU mL^−1 for bacteria and yeast respectively. Final assay volumes were 100 μL per well with MICs determined visually following 18-20 h incubation at 37 °C for bacteria, 24 h incubation at 35 °C for Candida albicans, and 24 h incubation at 35 °C with resazurin addition (0.006%; Sigma-Aldrich, Cat # R7017) for a further 3 h for Cryptococcus neoformans, without shaking. Additional bacterial and yeast susceptibility assays were performed in Cation-Adjusted Mueller Hinton Broth (CAMHB; BD, Cat No. 212322) and Roswell Park Memorial Institute (RPMI) 1640 culture medium (Life Technologies Australia, Cat No. 21870092), respectively, as recommended by CLSI guidelines (M07 11th ed[36] and M27 4th ed[37]). […] However, for yeast it was determined that the YPD media was more reliable and robust between repeats and therefore MICs in this media are reported. […] Agarose MICs were determined in MHB with 1% agarose (Bioline molecular grade; Cat no: BIO-41025; high purity, high gel strength). All experiments were performed a minimum of six replicates (n ≥ 6).

SMILES	BMD MIC (P. aeruginosa) [µg/mL]	BMD MIC (K. pneumoniae) [µg/mL]	BMD MIC (A. baumannii) [µg/mL]	BMD MIC (C. albicans) [µg/mL]	BMD MIC (E. coli) [µg/mL]	BMD MIC (S. aureus) [µg/mL]	Heamolysis HC10, Mean [1] [µg/mL]	Heamolysis HC10 [1] [µg/mL]	CC50 at 24 h (in vitro; HEK-293 cells) [µg/mL]	CC50 at 24 h (in vitro; HK-2 cells) [µg/mL]	CC50 at 24 h (in vitro; HepG2 cells) [µg/mL]	CC50 HEK293 [2] [µg/mL]	CC50 HEK293, Mean [2] [µg/mL]	CC50 HK2 [3] [µg/mL]	CC50 HK2, Mean [3] [µg/mL]	CC50 HepG2 [4] [µg/mL]	CC50 HepG2, Mean [4] [µg/mL]	MIC, MHB (E. coli ATCC 25922) [µg/mL]
CC(C)[C@@H]1NC(=O)CNC(=O)[C@H](CC(N)=O)NC(=O)[C@H](CCCNC(=N)N)NC(=O)[C@H](CCCCN)NC(=O)[C@H](C(C)C)NC(=O)[C@@H]2CSSC[C@H](NC(=O)[C@H](CO)NC(=O)[C@H](CCCNC(=N)N)NC1=O)C(=O)N[C@@H](Cc1ccc(O)cc1)C(=O)N[C@@H](CCCNC(=N)N)C(=O)N[C@@H](CCCNC(=N)N)C(=O)N[C@H](C(=O)N[C@@H](CC(N)=O)C(=O)O)CSSC[C@H](NC(=O)[C@H](Cc1ccccc1)NC(=O)CN)C(=O)N[C@@H](Cc1c[nH]c3ccccc13)C(=O)N[C@@H](Cc1ccc(O)cc1)C(=O)N[C@@H](C(C)C)C(=O)N2 [NZ17160] (HELM PEPTIDE1{G.F.C.W.Y.V.C.V.K.R.N.G.V.R.S.C.Y.R.R.C.N}$PEPTIDE1,PEPTIDE1,3:R3-20:R3|PEPTIDE1,PEPTIDE1,7:R3-16:R3$$$V2.0)	0.5	0.25	1	64	0.125	>64	>300	>300	> 300	> 250	> 300	>300	>300	>257	>250	>300	>300	0.125 (≈ 0.0487 µM)
CC(C)[C@@H]1NC(=O)CNC(=O)[C@H](CC(N)=O)NC(=O)[C@H](CCCNC(=N)N)NC(=O)[C@H](Cc2ccc(O)cc2)NC(=O)[C@H](C(C)C)NC(=O)[C@@H]2CSSC[C@H](NC(=O)[C@H](C(C)C)NC(=O)[C@H](CCCNC(=N)N)NC1=O)C(=O)N[C@@H](Cc1ccc(O)cc1)C(=O)N[C@@H](CCCNC(=N)N)C(=O)N[C@@H](CCCNC(=N)N)C(=O)N[C@H](C(=O)N[C@@H](CC(N)=O)C(=O)O)CSSC[C@H](NC(=O)[C@H](Cc1ccccc1)NC(=O)CN)C(=O)N[C@@H](Cc1c[nH]c3ccccc13)C(=O)N[C@@H](CCCNC(=N)N)C(=O)N[C@@H](C)C(=O)N2 [NZ17230] (HELM PEPTIDE1{G.F.C.W.R.A.C.V.Y.R.N.G.V.R.V.C.Y.R.R.C.N}$PEPTIDE1,PEPTIDE1,3:R3-20:R3|PEPTIDE1,PEPTIDE1,7:R3-16:R3$$$V2.0)	0.25	0.25	0.5	64	–	64	>300	>300	223 (≈ 86.5 µM)	> 250	> 300	–	223 (≈ 86.5 µM)	>258	>250	>300	>300	0.25 (≈ 0.097 µM)
